Measurements reported in ChEMBL document CHEMBL3351560, “Pyrazolone-quinazolone hybrids: a novel class of human 4-hydroxyphenylpyruvate dioxygenase inhibitors” (Bioorg Med Chem, 2014).

Experiments:
[1] = biological target: T1, 4-hydroxyphenylpyruvate dioxygenase (Homo sapiens, UniProt P32754); test: Inhibition of purified His6-tagged recombinant human HPPD assessed as inhibition of maleylacetoacetate formation after 30 mins by UV/visible spectrophotometry
Target sequence in this assay (P32754 whole entry): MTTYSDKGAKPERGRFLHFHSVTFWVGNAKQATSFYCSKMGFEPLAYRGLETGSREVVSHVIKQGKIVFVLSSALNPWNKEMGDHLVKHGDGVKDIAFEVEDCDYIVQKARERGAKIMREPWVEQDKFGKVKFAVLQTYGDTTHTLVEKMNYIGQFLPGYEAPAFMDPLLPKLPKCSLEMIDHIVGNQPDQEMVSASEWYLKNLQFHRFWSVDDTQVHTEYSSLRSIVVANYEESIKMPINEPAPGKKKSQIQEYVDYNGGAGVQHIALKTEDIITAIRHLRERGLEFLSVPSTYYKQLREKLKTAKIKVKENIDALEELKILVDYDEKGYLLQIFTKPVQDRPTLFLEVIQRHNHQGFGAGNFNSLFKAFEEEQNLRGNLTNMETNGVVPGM

[2] = biological target: T1, 4-hydroxyphenylpyruvate dioxygenase; test: Ratio of Nitisinone Ki to compound Ki for purified His6-tagged recombinant human HPPD assessed as inhibition of maleylacetoacetate formation after 30 mins by UV/visible spectrophotometry
Target sequence in this assay (P32754 2-393 limits assumed): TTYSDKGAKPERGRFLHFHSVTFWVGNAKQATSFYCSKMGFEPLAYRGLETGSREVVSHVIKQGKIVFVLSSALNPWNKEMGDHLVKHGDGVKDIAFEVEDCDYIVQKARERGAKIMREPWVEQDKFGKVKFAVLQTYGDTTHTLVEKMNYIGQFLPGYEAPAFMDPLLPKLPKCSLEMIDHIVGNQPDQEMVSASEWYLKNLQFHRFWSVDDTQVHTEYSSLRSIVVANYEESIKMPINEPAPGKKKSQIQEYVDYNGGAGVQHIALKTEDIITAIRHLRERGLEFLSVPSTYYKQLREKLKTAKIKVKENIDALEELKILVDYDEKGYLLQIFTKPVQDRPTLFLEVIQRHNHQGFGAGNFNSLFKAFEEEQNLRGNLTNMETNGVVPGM

COc1ccccc1-n1c(C)nc2ccc(C(=O)c3c(C)nn(C)c3O)cc2c1=O
Ki [1]: 207 nM

Cc1ccc(-n2c(C)nc3ccc(C(=O)c4c(C)nn(C)c4O)cc3c2=O)c(F)c1
Ki [1]: 81 nM

Cc1ccc(-n2c(C)nc3ccc(C(=O)c4cnn(C)c4O)cc3c2=O)c(Br)c1
Ki [1]: 11 nM | Ratio Ki [2]: 3

Cc1nn(C)c(O)c1C(=O)c1ccc2nc(C)n(-c3ccccc3F)c(=O)c2c1
Ki [1]: 79 nM

Cc1ccc(-n2c(C)nc3ccc(C(=O)c4c(C)nn(C)c4O)cc3c2=O)c(Cl)c1
Ki [1]: 109 nM

Cc1cc(Cl)ccc1-n1c(C)nc2ccc(C(=O)c3cnn(C)c3O)cc2c1=O
Ki [1]: 32 nM

Cc1nc2ccc(C(=O)c3cnn(C)c3O)cc2c(=O)n1-c1ccc(F)cc1
Ki [1]: 34 nM

Cc1ccc(-n2c(C)nc3ccc(C(=O)c4cnn(C)c4O)cc3c2=O)c(C)c1
Ki [1]: 59 nM

Cc1ccc(-n2c(C)nc3ccc(C(=O)c4cnn(C)c4O)cc3c2=O)c(Cl)c1
Ki [1]: 90 nM

Cc1nn(C)c(O)c1C(=O)c1ccc2nc(C)n(-c3cccc(F)c3)c(=O)c2c1
Ki [1]: 90 nM

COc1ccccc1-n1c(C)nc2ccc(C(=O)c3cnn(C)c3O)cc2c1=O
Ki [1]: 38 nM

Cc1cc(F)ccc1-n1c(C)nc2ccc(C(=O)c3c(C)nn(C)c3O)cc2c1=O
Ki [1]: 219 nM

Cc1nn(C)c(O)c1C(=O)c1ccc2nc(C)n(-c3ccc(Cl)cc3)c(=O)c2c1
Ki [1]: 237 nM

Cc1ccccc1-n1c(C)nc2ccc(C(=O)c3cnn(C)c3O)cc2c1=O
Ki [1]: 58 nM

Cc1nc2ccc(C(=O)c3cnn(C)c3O)cc2c(=O)n1-c1ccccc1Cl
Ki [1]: 22 nM

Cc1nn(C)c(O)c1C(=O)c1ccc2nc(C)n(-c3cccc(Br)c3)c(=O)c2c1
Ki [1]: 93 nM

Cc1ccccc1-n1c(C)nc2ccc(C(=O)c3c(C)nn(C)c3O)cc2c1=O
Ki [1]: 248 nM

COc1cccc(-n2c(C)nc3ccc(C(=O)c4cnn(C)c4O)cc3c2=O)c1
Ki [1]: 34 nM

Cc1nc2ccc(C(=O)c3cnn(C)c3O)cc2c(=O)n1-c1cccc(F)c1
Ki [1]: 20 nM

Cc1nn(C)c(O)c1C(=O)c1ccc2nc(C)n(-c3ccccc3Cl)c(=O)c2c1
Ki [1]: 86 nM

Cc1nc2ccc(C(=O)c3cnn(C)c3O)cc2c(=O)n1-c1ccccc1F
Ki [1]: 15 nM

Cc1nn(C)c(O)c1C(=O)c1ccc2nc(C)n(-c3cccc(Cl)c3)c(=O)c2c1
Ki [1]: 173 nM

Cc1nc2ccc(C(=O)c3cnn(C)c3O)cc2c(=O)n1-c1cccc(Br)c1
Ki [1]: 14 nM

Cc1ccc(-n2c(C)nc3ccc(C(=O)c4cnn(C)c4O)cc3c2=O)c(F)c1
Ki [1]: 170 nM

Cc1cccc(-n2c(C)nc3ccc(C(=O)c4c(C)nn(C)c4O)cc3c2=O)c1
Ki [1]: 74 nM

Cc1ccc(-n2c(C)nc3ccc(C(=O)c4c(C)nn(C)c4O)cc3c2=O)cc1
Ki [1]: 156 nM

Cc1nc2ccc(C(=O)c3cnn(C)c3O)cc2c(=O)n1-c1ccccc1
Ki [1]: 19 nM

Cc1ccc(-n2c(C)nc3ccc(C(=O)c4cnn(C)c4O)cc3c2=O)cc1
Ki [1]: 25 nM

COc1ccc(-n2c(C)nc3ccc(C(=O)c4c(C)nn(C)c4O)cc3c2=O)cc1
Ki [1]: 238 nM

Cc1ccc(-n2c(C)nc3ccc(C(=O)c4c(C)nn(C)c4O)cc3c2=O)c(Br)c1
Ki [1]: 87 nM

Cc1ccc(-n2c(C)nc3ccc(C(=O)c4c(C)nn(C)c4O)cc3c2=O)c(C)c1
Ki [1]: 161 nM

Cc1nn(C)c(O)c1C(=O)c1ccc2nc(C)n(-c3ccc(Br)cc3)c(=O)c2c1
Ki [1]: 130 nM

Cc1nn(C)c(O)c1C(=O)c1ccc2nc(C)n(-c3ccc(F)cc3)c(=O)c2c1
Ki [1]: 247 nM

Cc1nc2ccc(C(=O)c3cnn(C)c3O)cc2c(=O)n1-c1ccc(Cl)c(Cl)c1
Ki [1]: 25 nM

Cc1cccc(-n2c(C)nc3ccc(C(=O)c4cnn(C)c4O)cc3c2=O)c1
Ki [1]: 13 nM

Cc1nc2ccc(C(=O)c3cnn(C)c3O)cc2c(=O)n1-c1cccc(Cl)c1
Ki [1]: 10 nM | Ratio Ki [2]: 3

COc1ccc(-n2c(C)nc3ccc(C(=O)c4cnn(C)c4O)cc3c2=O)cc1
Ki [1]: 60 nM

Cc1cc(F)ccc1-n1c(C)nc2ccc(C(=O)c3cnn(C)c3O)cc2c1=O
Ki [1]: 40 nM

Cc1nc2ccc(C(=O)c3cnn(C)c3O)cc2c(=O)n1-c1ccc(OC(F)(F)F)cc1
Ki [1]: 160 nM

Cc1nc2ccc(C(=O)c3cnn(C)c3O)cc2c(=O)n1-c1ccc(Br)cc1
Ki [1]: 18 nM

Cc1cc(Cl)ccc1-n1c(C)nc2ccc(C(=O)c3c(C)nn(C)c3O)cc2c1=O
Ki [1]: 177 nM

Cc1nc2ccc(C(=O)c3cnn(C)c3O)cc2c(=O)n1-c1ccc(Cl)cc1
Ki [1]: 22 nM

Cc1nc2ccc(C(=O)c3cnn(C)c3O)cc2c(=O)n1-c1ccccc1Br
Ki [1]: 24 nM

Cc1nc2ccc(C(=O)c3cnn(C)c3O)cc2c(=O)n1-c1cccc(OC(F)(F)F)c1
Ki [1]: 31 nM
